Laboratory results taken from patent US8003649B2 (AstraZeneca AB, priority 2007, dated 2011).

What follows are compounds tested against T1, Androgen Receptor (AR) (Homo sapiens, UniProt P10275, T878A) (assay: LNCaP Androgen Receptor Down-regulation Cell Assay (immunofluorescence end point)). Details: LNCaP prostate carcinoma cells, compound incubation 20-22 hours, 50% reduction of the AR signal; read-out: Androgen Receptor Down-regulation Assay (a) IC50/μM.
T1 construct: cell based immuno-fluorescence assay using the LNCaP prostate epithelial cell line; endogenous in cells; host or cells: LNCaP clone FGC (ATCC CRL-1740)
T1 sequence (P10275 1-920 T878A): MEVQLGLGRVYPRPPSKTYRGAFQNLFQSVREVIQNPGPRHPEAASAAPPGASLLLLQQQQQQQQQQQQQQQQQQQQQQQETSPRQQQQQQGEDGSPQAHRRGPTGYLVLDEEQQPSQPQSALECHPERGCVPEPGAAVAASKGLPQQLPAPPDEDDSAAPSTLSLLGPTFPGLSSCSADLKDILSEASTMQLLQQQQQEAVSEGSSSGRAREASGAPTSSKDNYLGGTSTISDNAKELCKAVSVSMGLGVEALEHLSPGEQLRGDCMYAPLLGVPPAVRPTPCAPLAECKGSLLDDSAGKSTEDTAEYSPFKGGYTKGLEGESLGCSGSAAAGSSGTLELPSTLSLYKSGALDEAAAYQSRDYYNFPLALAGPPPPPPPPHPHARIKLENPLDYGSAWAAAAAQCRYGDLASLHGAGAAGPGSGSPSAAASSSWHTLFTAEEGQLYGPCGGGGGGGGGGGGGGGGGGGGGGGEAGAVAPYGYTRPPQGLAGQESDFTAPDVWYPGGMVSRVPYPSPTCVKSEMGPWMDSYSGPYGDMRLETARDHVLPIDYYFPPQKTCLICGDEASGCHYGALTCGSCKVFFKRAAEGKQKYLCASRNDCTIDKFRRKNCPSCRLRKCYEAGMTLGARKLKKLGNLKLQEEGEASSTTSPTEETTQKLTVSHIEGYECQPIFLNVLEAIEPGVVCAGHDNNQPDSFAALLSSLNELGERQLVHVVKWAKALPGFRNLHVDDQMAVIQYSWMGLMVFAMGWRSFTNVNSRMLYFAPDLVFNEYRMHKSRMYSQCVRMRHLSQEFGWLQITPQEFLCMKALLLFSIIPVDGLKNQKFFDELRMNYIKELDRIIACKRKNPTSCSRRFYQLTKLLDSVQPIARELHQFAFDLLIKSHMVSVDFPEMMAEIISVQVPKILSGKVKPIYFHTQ
Assay type: cell-based
Outline: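 AR loss reported as IC50 from curve fits of fluorescence dose-response data, with AR immunostained and read by laser-scanning cytometry. Compound exposure was 20-22 h at 37° C in LNCaP cells grown in 5% charcoal-stripped FBS and plated overnight beforehand.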

Compound	DC50 [µM]
O=C(c1ccc2[nH]cc(C3CCN(c4ccc5nnc(C(F)(F)F)n5n4)CC3)c2c1)N1CC[C@@H](O)C1 [Example 500]	> 18
O=C(c1ccc2[nH]cc(C3CCN(c4ccc5nnc(C(F)(F)F)n5n4)CC3)c2c1)N1CCOCC1 [Example 502]	2.2
O=C(NCCN1CCOCC1)c1ccc2[nH]cc(C3CCN(c4ccc5nnc(C(F)(F)F)n5n4)CC3)c2c1 [Example 503]	4.3
COCCN(C)C(=O)c1ccc2[nH]cc(C3CCN(c4ccc5nnc(C(F)(F)F)n5n4)CC3)c2c1 [Example 504]	1.9
O=C(c1ccc2[nH]cc(C3CCN(c4ccc5nnc(C(F)(F)F)n5n4)CC3)c2c1)N1CC[C@H](O)C1 [Example 505]	> 19
FC(F)(F)c1nnc2ccc(N3CCC(c4c[nH]c5ccccc45)CC3)nn12 [Example 507, 6-[4-(1H-indol-3-yl)piperidin-1-yl]-3-(trifluoromethyl)[1,2,4]triazolo[4,3-b]pyridazine]	0.53
FC(F)(F)c1nnc2ccc(N3CCC(c4cn(CCN5CCCC5)c5ccccc45)CC3)nn12 [Example 508, 6-[4-[1-(2-pyrrolidin-1-ylethyl)-1H-indol-3-yl]piperidin-1-yl]-3-(trifluoromethyl)[1,2,4]triazolo[4,3-b]pyridazine]	2.2
COCCN(C)C(=O)c1ccc(C2CCN(c3ccc4nnc(C(F)(F)F)n4n3)CC2)cc1 [Example 512, N-(2-methoxyethyl)-N-methyl-4-[1-[3-(trifluoromethyl)[1,2,4]triazolo[4,3-b]pyridazin-6-yl]piperidin-4-yl]benzamide]	0.87
Cn1nccc1CCOc1ccc(N2CCN(c3ccc4nnc(C(F)(F)F)n4n3)CC2)cc1 [Example 514, 6-[4-[4-[2-(1-methyl-1H-pyrazol-5-yl)ethoxy]phenyl]piperazin-1-yl]-3-(trifluoromethyl)[1,2,4]triazolo[4,3-b]pyridazine]	0.87
FC(F)(F)c1nnc2ccc(N3CCCC(c4ccccc4)C3)nn12 (stereo not shown) [Example 515, 6-(3-phenylpiperidin-1-yl)-3-(trifluoromethyl)[1,2,4]triazolo[4,3-b]pyridazine]	1.4
FC(F)(F)c1nnc2ccc(N3CCCC(COc4ccccc4)C3)nn12 (stereo not shown) [Example 516, 6-[3-(Phenoxymethyl)piperidin-1-yl]-3-(trifluoromethyl)[1,2,4]triazolo[4,3-b]pyridazine]	1.4
CS(=O)(=O)c1ccc(C2CCN(c3ccc4nnc(C(F)(F)F)n4n3)CC2)cc1 [Example 521]	5.4
CNC(=O)c1ccc(C2CCN(c3ccc4nnc(C(F)(F)F)n4n3)CC2)cc1 [Example 522]	3.9
COc1ccc(C2CCN(c3ccc4nnc(C(F)(F)F)n4n3)CC2)cc1 [Example 523]	1
FC(F)(F)c1ccc(C2CCN(c3ccc4nnc(C(F)(F)F)n4n3)CC2)cc1 [Example 524]	3.2
Fc1cccc(C2CCN(c3ccc4nnc(C(F)(F)F)n4n3)CC2)c1 [Example 525]	5.2
COc1cccc(C2CCN(c3ccc4nnc(C(F)(F)F)n4n3)CC2)c1 [Example 526]	2.5
COc1cccc(OC2CCN(c3ccc4nnc(C(F)(F)F)n4n3)CC2)c1 [Example 527]	0.67
COc1ccc(OC2CCN(c3ccc4nnc(C(F)(F)F)n4n3)CC2)cc1 [Example 528]	2.2
Fc1ccccc1OC1CCN(c2ccc3nnc(C(F)(F)F)n3n2)CC1 [Example 529]	1.9
FC(F)(F)c1nnc2ccc(N3CCC(Oc4ccccc4Cl)CC3)nn12 [Example 530]	1.6
COc1ccccc1OC1CCN(c2ccc3nnc(C(F)(F)F)n3n2)CC1 [Example 531]	1.8
Fc1cccc(OC2CCN(c3ccc4nnc(C(F)(F)F)n4n3)CC2)c1 [Example 532]	0.98
FC(F)(F)c1nnc2ccc(N3C[C@H]4CC[C@@H](C3)N4Cc3cccnc3)nn12 [Example 553, 6-[(1R,5S)-8-(pyridin-3-ylmethyl)-3,8-diazabicyclo[3.2.1]oct-3-yl]-3-(trifluoromethyl)[1,2,4]triazolo[4,3-b]pyridazine]	2.6

More lines, now with the values ahead:

DC50 [µM]	Compound
2.3	O=C(c1ccccc1)C1CCN(c2ccc3nnc(C(F)(F)F)n3n2)CC1 [Example 533]
2.3	O=C(c1ccc(F)cc1)C1CCN(c2ccc3nnc(C(F)(F)F)n3n2)CC1 [Example 534]
1.9	FC(F)(F)c1nnc2ccc(N3CCC(Cc4ccccc4)CC3)nn12 [Example 535]
1.4	Fc1ccc(CC2CCN(c3ccc4nnc(C(F)(F)F)n4n3)CC2)cc1 [Example 536]
3	FC(F)(F)c1nnc2ccc(N3CCC(Cc4ccccn4)CC3)nn12 [Example 537]
2.3	FC(F)(F)c1nnc2ccc(N3CCC(Cc4ccncc4)CC3)nn12 [Example 538]
1.5	FC(F)(F)c1nnc2ccc(N3CCC(Cc4cccnc4)CC3)nn12 [Example 539]
1.5	FC(F)(F)c1nnc2ccc(N3CCC(c4ccncc4)CC3)nn12 [Example 540]
2.6	FC(F)(F)c1nnc2ccc(N3CCC(n4ccc5ccccc54)CC3)nn12 [Example 542]
2.9	FC(F)(F)c1nnc2ccc(N3CCC(Oc4cnccn4)CC3)nn12 [Example 544]
3.6	FC(F)(F)c1nnc2ccc(N3CCC(Oc4ccncc4)CC3)nn12 [Example 545]
2.2	OC1(Cc2ccccc2)CCN(c2ccc3nnc(C(F)(F)F)n3n2)CC1 [Example 548]
1.6	OC1(c2ccccc2F)CCN(c2ccc3nnc(C(F)(F)F)n3n2)CC1 [Example 549]
7.2	OC1(c2ccncc2)CCN(c2ccc3nnc(C(F)(F)F)n3n2)CC1 [Example 550]
7.8	Fc1ccc(C2=CCN(c3ccc4nnc(C(F)(F)F)n4n3)CC2)cc1 [Example 552]
4.9	Fc1ccc(CN[C@H]2[C@@H]3CN(c4ccc5nnc(C(F)(F)F)n5n4)C[C@@H]32)cc1 [Example 554, (1α,5α,6α) N-(4-fluorobenzyl)-3-[3-(trifluoromethyl)[1,2,4]triazolo[4,3-b]pyridazin-6-yl]-3-azabicyclo[3.1.0]hexan-6-amine]

DC50 [µM]	Compound
1.4	FC(F)(F)c1nnc2ccc(N3C[C@@H]4[C@H](C3)[C@H]4NCc3cccc(Cl)c3)nn12 [Example 555]
4.4	Fc1cccc(CN[C@H]2[C@@H]3CN(c4ccc5nnc(C(F)(F)F)n5n4)C[C@@H]32)c1 [Example 556]
2.6	FC(F)(F)c1nnc2ccc(N3CCC(COc4ncccn4)CC3)nn12 [Example 558]
8.8	FC(F)(F)c1nnc2ccc(N3CCC(COc4cccnc4)CC3)nn12 [Example 560]
2.9	FC(F)(F)c1nnc2ccc(N3CCC(COc4ccncc4)CC3)nn12 [Example 561]
2	FC(F)(F)c1nnc2ccc(N3CCC(COc4cccc(Cl)n4)CC3)nn12 [Example 562, 6-[4-[[(6-chloropyridin-2-yl)oxy]methyl]piperidin-1-yl]-3-(trifluoromethyl)[1,2,4]triazolo[4,3-b]pyridazine]
6.7	C[C@@H]1CN(c2ccc3nnc(C(F)(F)F)n3n2)CCN1Cc1cccnc1 [Example 564, 6-[(3R)-3-methyl-4-(pyridin-3-ylmethyl)piperazin-1-yl]-3-(trifluoromethyl)[1,2,4]triazolo[4,3-b]pyridazine]
3.5	C[C@@H]1CN(c2ccc3nnc(C(F)(F)F)n3n2)CCN1Cc1ccc(C#N)cc1 [Example 565]
> 16	C[C@@H]1CN(c2ccc3nnc(C(F)(F)F)n3n2)CCN1Cc1cc(F)cc(F)c1 [Example 567]
3.3	C[C@@H]1CN(c2ccc3nnc(C(F)(F)F)n3n2)CCN1Cc1ccc(F)cc1 [Example 568]
2.7	C[C@@H]1CN(c2ccc3nnc(C(F)(F)F)n3n2)CCN1Cc1ccc(F)c(C#N)c1 [Example 569]
4.5	C[C@H]1CN(c2ccc3nnc(C(F)(F)F)n3n2)CCN1Cc1cccnc1 [Example 570, 6-[(3S)-3-methyl-4-(pyridin-3-ylmethyl)piperazin-1-yl]-3-(trifluoromethyl)[1,2,4]triazolo[4,3-b]pyridazine]
0.96	C[C@H]1CN(c2ccc3nnc(C(F)(F)F)n3n2)CCN1Cc1ccc(C#N)cc1 [Example 571]
3.4	C[C@H]1CN(c2ccc3nnc(C(F)(F)F)n3n2)CCN1Cc1ccc(F)c(F)c1 [Example 572]
2.5	C[C@H]1CN(c2ccc3nnc(C(F)(F)F)n3n2)CCN1Cc1ccc(F)c(C#N)c1 [Example 575]
